# Where a SMILES comes first, the peptide text is derived from it. [ ]: non-standard residue; d: D form. The star is where a group is joined. Gly(N-(2R-Ph-propyl)) = C[C@@H](CNCC(=O)O)c1ccccc1; Piperidin1yl(4-NH2,4-COOH) = NC1(C(=O)O)CCN(*)CC1; N(Indan-2-yl)Gly = O=C(O)CNC1Cc2ccccc2C1; Gly(NCH2CH2Ph) = O=C(O)CNCCc1ccccc1; Morpholide = C1CN(*)CCO1; X1 = CNC(=O)NC1CCN(*)CC1
# Assays:
# [1] = molecular target: Kappa-type opioid receptor (Homo sapiens, UniProt P41145); assay: Agonist activity at human kappa opioid receptor expressed in HEK293 cells assessed as inhibition of forskolin-induced cAMP accumulation measured after 5 hrs by One-Glo luciferase assay; type: functional, cell-based
# Kappa-type opioid receptor, sequence (P41145 whole entry): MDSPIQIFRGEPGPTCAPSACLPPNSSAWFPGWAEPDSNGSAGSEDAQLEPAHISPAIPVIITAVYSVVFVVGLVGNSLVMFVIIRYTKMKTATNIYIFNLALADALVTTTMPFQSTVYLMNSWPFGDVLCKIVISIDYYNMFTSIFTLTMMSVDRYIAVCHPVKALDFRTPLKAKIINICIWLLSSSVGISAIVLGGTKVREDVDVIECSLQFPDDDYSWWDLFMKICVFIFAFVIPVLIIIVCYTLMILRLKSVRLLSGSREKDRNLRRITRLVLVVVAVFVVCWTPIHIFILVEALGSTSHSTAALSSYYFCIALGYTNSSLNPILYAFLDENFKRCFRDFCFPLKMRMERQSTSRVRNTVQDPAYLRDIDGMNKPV
# [2] = molecular target: Delta-type opioid receptor (Homo sapiens, UniProt P41143); assay: Agonist activity at human delta opioid receptor assessed as inhibition of forskolin-induced cAMP accumulation
# Delta-type opioid receptor, sequence (P41143 whole entry): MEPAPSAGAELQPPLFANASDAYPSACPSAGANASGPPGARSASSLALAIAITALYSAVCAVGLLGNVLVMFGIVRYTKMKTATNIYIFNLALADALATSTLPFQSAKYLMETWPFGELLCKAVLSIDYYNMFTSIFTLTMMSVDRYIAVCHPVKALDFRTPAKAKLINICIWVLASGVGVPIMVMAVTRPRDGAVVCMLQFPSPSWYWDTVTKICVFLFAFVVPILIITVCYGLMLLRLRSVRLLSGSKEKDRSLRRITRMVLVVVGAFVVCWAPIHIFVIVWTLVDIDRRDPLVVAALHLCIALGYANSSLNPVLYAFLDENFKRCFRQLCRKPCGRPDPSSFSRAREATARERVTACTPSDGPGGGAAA
# Mu-type opioid receptor = Mu-type opioid receptor (Homo sapiens, UniProt P35372); assay: Agonist activity at human mu opioid receptor assessed as inhibition of forskolin-induced cAMP accumulation; type: ADME
# Mu-type opioid receptor, sequence (P35372 whole entry): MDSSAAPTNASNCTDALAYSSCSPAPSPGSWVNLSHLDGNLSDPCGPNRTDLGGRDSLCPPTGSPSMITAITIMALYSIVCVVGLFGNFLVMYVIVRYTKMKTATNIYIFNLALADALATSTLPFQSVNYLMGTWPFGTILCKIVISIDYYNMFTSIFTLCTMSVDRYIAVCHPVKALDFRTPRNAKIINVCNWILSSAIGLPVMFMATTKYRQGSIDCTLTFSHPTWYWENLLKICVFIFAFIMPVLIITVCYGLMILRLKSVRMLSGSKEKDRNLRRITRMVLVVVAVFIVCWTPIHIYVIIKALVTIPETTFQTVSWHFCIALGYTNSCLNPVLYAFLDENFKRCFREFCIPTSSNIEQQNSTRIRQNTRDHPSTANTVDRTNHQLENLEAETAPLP
# [3] = Half life in human liver microsomes; type: ADME, Microsome
# [4] = Half life in rat liver microsomes; type: ADME, Microsome
# [5] = Half life in mouse liver microsomes; type: ADME, Microsome
# Cytochrome P450 1A2 = molecular target: T1, Cytochrome P450 1A2 (Homo sapiens, UniProt P05177); assay: Inhibition of CYP1A2 in human pooled liver microsomes using phenacetin as substrate measured up to 20 mins by UHPLC-MS/MS analysis; type: ADME
# T1 sequence (P05177 whole entry): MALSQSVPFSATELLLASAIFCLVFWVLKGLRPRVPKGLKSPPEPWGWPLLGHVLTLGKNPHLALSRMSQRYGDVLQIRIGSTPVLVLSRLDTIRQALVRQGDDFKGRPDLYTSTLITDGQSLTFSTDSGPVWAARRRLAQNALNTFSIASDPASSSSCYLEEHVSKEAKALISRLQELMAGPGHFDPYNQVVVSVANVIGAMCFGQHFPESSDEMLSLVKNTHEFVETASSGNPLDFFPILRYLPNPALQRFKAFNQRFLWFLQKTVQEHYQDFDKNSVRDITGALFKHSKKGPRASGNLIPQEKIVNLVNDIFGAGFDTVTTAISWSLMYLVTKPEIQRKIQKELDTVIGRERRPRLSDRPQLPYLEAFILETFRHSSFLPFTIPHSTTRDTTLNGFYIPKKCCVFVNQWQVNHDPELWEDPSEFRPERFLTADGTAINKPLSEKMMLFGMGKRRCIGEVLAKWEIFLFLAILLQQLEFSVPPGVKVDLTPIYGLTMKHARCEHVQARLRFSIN
# Cytochrome P450 2C9 = Cytochrome P450 2C9 (Homo sapiens, UniProt P11712); assay: Inhibition of CYP2C9 in human pooled liver microsomes using tolbutamide as substrate measured up to 20 mins by UHPLC-MS/MS analysis; type: ADME
# Cytochrome P450 2C9, sequence (P11712 whole entry): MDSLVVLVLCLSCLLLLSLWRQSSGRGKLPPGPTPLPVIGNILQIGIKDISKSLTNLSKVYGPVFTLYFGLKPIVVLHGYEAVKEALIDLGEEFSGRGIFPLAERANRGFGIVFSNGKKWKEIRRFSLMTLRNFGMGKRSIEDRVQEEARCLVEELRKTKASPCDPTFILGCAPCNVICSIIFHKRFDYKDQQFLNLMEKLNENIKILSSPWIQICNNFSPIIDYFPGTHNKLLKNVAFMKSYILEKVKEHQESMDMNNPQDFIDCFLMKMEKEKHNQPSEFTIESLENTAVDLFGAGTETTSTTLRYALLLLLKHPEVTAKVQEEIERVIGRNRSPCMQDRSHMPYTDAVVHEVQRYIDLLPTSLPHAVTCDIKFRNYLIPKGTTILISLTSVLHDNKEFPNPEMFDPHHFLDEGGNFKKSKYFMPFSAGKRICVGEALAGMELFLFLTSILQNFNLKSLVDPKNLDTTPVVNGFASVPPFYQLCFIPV
# Cytochrome P450 2D6 = Cytochrome P450 2D6 (Homo sapiens, UniProt P10635); assay: Inhibition of CYP2D6 in human pooled liver microsomes using dextromethorphan as substrate measured up to 20 mins by UHPLC-MS/MS analysis; type: ADME
# Cytochrome P450 2D6, sequence (P10635 whole entry): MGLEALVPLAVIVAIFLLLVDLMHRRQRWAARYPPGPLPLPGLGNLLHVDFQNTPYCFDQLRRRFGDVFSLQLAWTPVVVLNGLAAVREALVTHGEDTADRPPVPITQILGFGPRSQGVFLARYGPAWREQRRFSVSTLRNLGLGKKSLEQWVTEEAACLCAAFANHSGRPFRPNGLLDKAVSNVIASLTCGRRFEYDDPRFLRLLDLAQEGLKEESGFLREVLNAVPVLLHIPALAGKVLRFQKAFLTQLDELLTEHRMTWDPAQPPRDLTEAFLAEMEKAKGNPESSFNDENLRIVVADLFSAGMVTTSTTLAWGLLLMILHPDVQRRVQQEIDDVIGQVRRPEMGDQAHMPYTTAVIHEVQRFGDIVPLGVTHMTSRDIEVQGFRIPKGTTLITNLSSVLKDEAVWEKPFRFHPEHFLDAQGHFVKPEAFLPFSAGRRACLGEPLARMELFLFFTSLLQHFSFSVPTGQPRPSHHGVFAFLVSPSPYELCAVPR
# Cytochrome P450 3A4 [6] = molecular target: T2, Cytochrome P450 3A4 (Homo sapiens, UniProt P08684); assay: Inhibition of CYP3A4 in human pooled liver microsomes using midazolam as substrate measured up to 20 mins by UHPLC-MS/MS analysis; type: ADME
# T2 sequence (P08684 whole entry): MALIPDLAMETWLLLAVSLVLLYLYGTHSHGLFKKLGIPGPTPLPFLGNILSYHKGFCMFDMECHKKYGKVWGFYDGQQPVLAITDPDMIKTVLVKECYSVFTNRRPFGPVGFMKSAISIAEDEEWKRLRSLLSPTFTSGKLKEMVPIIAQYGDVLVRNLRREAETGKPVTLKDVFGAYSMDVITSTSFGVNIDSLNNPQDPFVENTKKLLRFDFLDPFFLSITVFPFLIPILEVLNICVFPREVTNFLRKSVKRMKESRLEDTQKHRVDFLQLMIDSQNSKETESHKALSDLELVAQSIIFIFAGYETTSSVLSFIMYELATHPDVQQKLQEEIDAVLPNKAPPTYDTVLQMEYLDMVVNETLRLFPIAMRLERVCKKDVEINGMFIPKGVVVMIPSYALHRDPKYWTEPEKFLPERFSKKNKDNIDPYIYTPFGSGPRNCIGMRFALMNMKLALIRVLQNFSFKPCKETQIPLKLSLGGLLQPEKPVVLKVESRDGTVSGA
# Cytochrome P450 3A4 [7] = molecular target: T2, Cytochrome P450 3A4; assay: Inhibition of CYP3A4 in human pooled liver microsomes using testosterone as substrate measured up to 20 mins by UHPLC-MS/MS analysis; type: ADME
# Cytochrome P450 2C19 = Cytochrome P450 2C19 (Homo sapiens, UniProt P33261); assay: Inhibition of CYP2C19 in human pooled liver microsomes using S-mephenytoin as substrate measured up to 20 mins by UHPLC-MS/MS analysis; type: ADME
# Cytochrome P450 2C19, sequence (P33261 whole entry): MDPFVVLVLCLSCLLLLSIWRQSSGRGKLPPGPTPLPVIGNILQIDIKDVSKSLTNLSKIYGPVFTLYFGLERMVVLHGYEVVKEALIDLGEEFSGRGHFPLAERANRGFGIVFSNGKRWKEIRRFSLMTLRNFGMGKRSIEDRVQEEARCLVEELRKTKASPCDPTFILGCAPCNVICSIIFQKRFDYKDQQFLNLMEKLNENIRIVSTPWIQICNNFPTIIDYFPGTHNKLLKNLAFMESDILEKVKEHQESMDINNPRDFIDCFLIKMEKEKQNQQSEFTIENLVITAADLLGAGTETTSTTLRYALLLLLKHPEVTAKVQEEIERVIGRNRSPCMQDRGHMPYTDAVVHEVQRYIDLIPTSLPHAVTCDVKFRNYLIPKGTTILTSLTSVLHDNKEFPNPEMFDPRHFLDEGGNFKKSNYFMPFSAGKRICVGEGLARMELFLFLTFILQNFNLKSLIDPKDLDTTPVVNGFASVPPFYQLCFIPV
# [8] = molecular target: Voltage-gated inwardly rectifying potassium channel KCNH2 (Homo sapiens, UniProt Q12809); assay: Inhibition of human ERG
# Voltage-gated inwardly rectifying potassium channel KCNH2, sequence (Q12809 whole entry): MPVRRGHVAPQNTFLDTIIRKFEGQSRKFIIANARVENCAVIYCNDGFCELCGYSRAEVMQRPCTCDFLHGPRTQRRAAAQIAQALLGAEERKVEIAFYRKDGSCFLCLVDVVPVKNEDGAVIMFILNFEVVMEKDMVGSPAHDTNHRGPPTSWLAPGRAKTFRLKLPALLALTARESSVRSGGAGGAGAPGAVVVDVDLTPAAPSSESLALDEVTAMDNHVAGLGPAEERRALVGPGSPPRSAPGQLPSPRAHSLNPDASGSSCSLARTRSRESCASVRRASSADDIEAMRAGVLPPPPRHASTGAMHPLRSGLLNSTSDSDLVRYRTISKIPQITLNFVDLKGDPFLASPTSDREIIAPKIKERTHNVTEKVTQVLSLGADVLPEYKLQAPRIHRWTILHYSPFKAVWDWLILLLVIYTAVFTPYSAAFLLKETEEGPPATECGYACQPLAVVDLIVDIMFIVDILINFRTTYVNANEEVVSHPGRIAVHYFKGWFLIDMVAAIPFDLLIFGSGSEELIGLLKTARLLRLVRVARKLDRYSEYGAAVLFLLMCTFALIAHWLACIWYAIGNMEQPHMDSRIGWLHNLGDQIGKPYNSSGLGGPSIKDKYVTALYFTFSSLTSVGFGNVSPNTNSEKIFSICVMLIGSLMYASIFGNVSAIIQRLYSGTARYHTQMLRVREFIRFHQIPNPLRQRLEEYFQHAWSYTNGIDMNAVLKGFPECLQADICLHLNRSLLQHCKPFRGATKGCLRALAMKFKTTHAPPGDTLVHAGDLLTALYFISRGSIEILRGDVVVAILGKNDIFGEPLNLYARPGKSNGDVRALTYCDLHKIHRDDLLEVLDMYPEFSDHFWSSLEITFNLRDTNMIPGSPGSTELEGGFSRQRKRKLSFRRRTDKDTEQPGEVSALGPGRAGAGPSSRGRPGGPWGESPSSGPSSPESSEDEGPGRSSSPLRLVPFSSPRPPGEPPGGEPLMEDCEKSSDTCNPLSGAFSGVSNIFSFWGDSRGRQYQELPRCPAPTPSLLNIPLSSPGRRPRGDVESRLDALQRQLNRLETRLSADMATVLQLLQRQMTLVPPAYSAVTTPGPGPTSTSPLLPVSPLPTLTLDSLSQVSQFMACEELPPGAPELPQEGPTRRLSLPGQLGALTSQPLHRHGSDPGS
# [9] = Unbound fraction in Sprague-Dawley rat plasma at 1 mg/kg, iv; type: ADME, organism-based
# [10] = Unbound fraction in Sprague-Dawley rat brain at 1 mg/kg, iv; type: ADME, organism-based
# [11] = Drug concentration in Sprague-Dawley rat plasma at 1 mg/kg, iv; type: ADME, organism-based; conditions: in vivo
# [12] = Drug concentration in Sprague-Dawley rat brain at 1 mg/kg, iv; type: ADME, organism-based; conditions: in vivo
# [13] = Unbound brain-to-plasma concentration ratio in Sprague-Dawley rat at 1 mg/kg, iv; type: ADME, organism-based; conditions: read-out: K(p,uu,brain)
# [14] = AUC (0 to t) in ICR mouse at 1 mg/kg, iv measured up to 24 hrs; type: ADME, organism-based; parameters: route intravenous, dose 1 mg/kg, time 24 hrs; conditions: in vivo
# [15] = Half life in ICR mouse at 1 mg/kg, iv measured up to 24 hrs; type: ADME, organism-based; conditions: in vivo
# [16] = Clearance in ICR mouse at 1 mg/kg, iv measured up to 24 hrs; type: ADME, organism-based; conditions: in vivo
# [17] = Apparent volume of distribution in ICR mouse at 1 mg/kg, iv measured up to 24 hrs; type: ADME, organism-based; conditions: in vivo, read-out: Vz
# [18] = AUC (0 to t) in Sprague-Dawley rat at 1 mg/kg, iv measured up to 24 hrs; type: ADME, organism-based; parameters: route intravenous, dose 1 mg/kg, time <=24; conditions: in vivo
# [19] = Half life in Sprague-Dawley rat at 1 mg/kg, iv measured up to 24 hrs; type: ADME, organism-based; conditions: in vivo
# [20] = Clearance in Sprague-Dawley rat at 1 mg/kg, iv measured up to 24 hrs; type: ADME, organism-based; conditions: in vivo
# [21] = Apparent volume of distribution in Sprague-Dawley rat at 1 mg/kg, iv measured up to 24 hrs; type: ADME, organism-based; conditions: in vivo, read-out: Vz
# [22] = AUC (0 to t) in Beagle dog at 0.5 mg/kg, iv measured up to 24 hrs; type: ADME, organism-based, Canis lupus familiaris; parameters: route intravenous, dose 0.5 mg/kg, time <=24; conditions: in vivo
# [23] = Half life in Beagle dog at 0.5 mg/kg, iv measured up to 24 hrs; type: ADME, organism-based, Canis lupus familiaris; conditions: in vivo
# [24] = Clearance in Beagle dog at 0.5 mg/kg, iv measured up to 24 hrs; type: ADME, organism-based, Canis lupus familiaris; conditions: in vivo
# [25] = Apparent volume of distribution in Beagle dog at 0.5 mg/kg, iv measured up to 24 hrs; type: ADME, organism-based, Canis lupus familiaris; conditions: in vivo, read-out: Vz
# Rattus norvegicus [26] = assay: Antiinflammatory activity in carrageenan-induced pain in iv dosed Wistar rat model assessed as effect on hindpaw withdrawal threshold administered 4 hrs post-carrageenan challenge and measured for 30 mins after compound administration by Von-Frey test; type: functional, organism-based; conditions: dose mg/kg 0.03-0.3, time 30.0 min
# Rattus norvegicus [27] = assay: Antiinflammatory activity in carrageenan-induced pain in Wistar rat model assessed as effect on hindpaw withdrawal threshold at 0.03 to 0.3 mg/kg, iv administered 4 hrs post-carrageenan challenge and measured for 30 mins after compound administration by Von-Frey test relative to control; type: functional; conditions: dose mg/kg 0.03-0.3, 0.5 h
# Rattus norvegicus [28] = assay: Antiinflammatory activity in carrageenan-induced pain in Wistar rat model assessed as effect on hindpaw withdrawal threshold at 0.3 mg/kg, iv administered 4 hrs post-carrageenan challenge and measured for 30 mins after compound administration by Von-Frey test relative to control; type: functional; conditions: dose mg/kg 0.03-0.3, 0.5 h
# [29] = Half life in dog liver microsomes; type: ADME, Canis lupus familiaris, Microsome
smiles,measurement,setting,value
CC(C)C[C@@H](NC(=O)[C@@H](Cc1ccccc1)NC(=O)CNC[C@@H](C)c1ccccc1)C(=O)N[C@H](CCCCN)C(=O)N1CCC(N)(C(=O)O)CC1,EC50,[1],0.0155 nM
CNC(=O)NC1CCN(C(=O)[C@@H](CCCCN)NC(=O)[C@@H](CC(C)C)NC(=O)[C@@H](Cc2ccccc2)NC(=O)CNC[C@H](C)c2ccccc2)CC1 (H-[Gly(N-(2R-Ph-propyl))][dF][dL][dK]-X1),EC50,[1],0.00053 nM
same,EC50,[2],> 50000 nM
same,EC50,Mu-type opioid receptor,> 50000 nM
same,half-life,[3],0.667 h
same,half-life,[4],> 4.47 h
same,half-life,[5],1.92 h
same,IC50,Cytochrome P450 1A2,> 30000 nM
same,IC50,Cytochrome P450 2C9,> 30000 nM
same,IC50,Cytochrome P450 2D6,> 30000 nM
same,IC50,Cytochrome P450 3A4 [6],> 30000 nM
same,IC50,Cytochrome P450 3A4 [7],> 30000 nM
same,IC50,Cytochrome P450 2C19,> 30000 nM
same,IC50,[8],> 30000 nM
same,fraction unbound,[9],0.211
same,fraction unbound,[10],0.0258
same,Cp,[11],1144 ng/mL
same,Ct,[12],57.2 ng/g
same,Kp uu,[13],0.006
same,AUC(0-t) at 24 h,[14],1660 ng·h/mL
same,half-life,[15],0.34 h
same,clearance,[16],10.1 mL/min/kg
same,Vd,[17],0.297 L/kg
same,AUC(0-t) at 24 h,[18],1550 ng·h/mL
same,half-life,[19],4.78 h
same,clearance,[20],10.5 mL/min/kg
same,Vd,[21],4.51 L/kg
same,AUC(0-t) at 24 h,[22],2620 ng·h/mL
same,half-life,[23],4.45 h
same,clearance,[24],3.1 mL/min/kg
same,Vd,[25],1.24 L/kg
same,Activity,Rattus norvegicus [26],Dose-dependent effect
same,Activity,Rattus norvegicus [27],28.9%
same,Activity,Rattus norvegicus [28],66.7%
same,half-life,[29],3.6 h
CC(C)C[C@@H](NC(=O)[C@@H](Cc1ccccc1)NC(=O)CNCC(C)(C)c1ccccc1)C(=O)N[C@H](CCCCN)C(=O)N1CCC(N)(C(=O)O)CC1,EC50,[1],0.078 nM
CC(C)C[C@@H](NC(=O)[C@@H](Cc1ccccc1)NC(=O)[C@@H]1Cc2ccccc2CN1)C(=O)N[C@H](CCCCN)C(=O)N1CCOCC1,EC50,[1],> 1 nM
CC(C)C[C@@H](NC(=O)[C@@H](Cc1ccccc1)NC(=O)CNC1Cc2ccccc2C1)C(=O)N[C@H](CCCCN)C(=O)N1CCOCC1 (H-[N(Indan-2-yl)Gly][dF][dL][dK]-Morpholide),EC50,[1],> 1 nM
CC(C)C[C@@H](NC(=O)[C@@H](Cc1ccccc1)NC(=O)C1(NCCc2ccccc2)CC1)C(=O)N[C@H](CCCCN)C(=O)N1CCC(N)(C(=O)O)CC1,EC50,[1],> 1 nM
CC(C)C[C@@H](NC(=O)[C@@H](Cc1ccccc1)NC(=O)CN[C@H]1C[C@@H]1c1ccccc1)C(=O)N[C@H](CCCCN)C(=O)N1CCOCC1,EC50,[1],0.08 nM
CC(C)C[C@@H](NC(=O)[C@@H](Cc1ccccc1)NC(=O)CNCCc1ccccc1)C(=O)N[C@H](CCCCN)C(=O)N1CCOCC1,EC50,[1],0.048 nM
CCC(CNCC(=O)N[C@H](Cc1ccccc1)C(=O)N[C@H](CC(C)C)C(=O)N[C@H](CCCCN)C(=O)N1CCC(N)(C(=O)O)CC1)c1ccccc1 (mixture of isomers),EC50,[1],0.0029 nM
CC(C)C[C@@H](NC(=O)[C@@H](Cc1ccccc1)NC(=O)CNC[C@@H](c1ccccc1)C(C)C)C(=O)N[C@H](CCCCN)C(=O)N1CCC(N)(C(=O)O)CC1,EC50,[1],0.0095 nM
CC(C)C[C@@H](NC(=O)[C@@H](Cc1ccccc1)NC(=O)CNCc1ccccc1)C(=O)N[C@H](CCCCN)C(=O)N1CCOCC1,EC50,[1],> 1 nM
CC(C)C[C@@H](NC(=O)[C@@H](Cc1ccccc1)NC(=O)[C@H](N)Cc1ccccc1)C(=O)N[C@H](CCCCN)C(=O)N1CCC(N)(C(=O)O)CC1 [DIFELIKEFALIN],EC50,[1],0.00262 nM
same,Activity,Rattus norvegicus [28],61.9%
CC(C)C[C@@H](NC(=O)[C@@H](Cc1ccccc1)NC(=O)CNC[C@H](C)c1ccccc1)C(=O)N[C@H](CCCCN)C(=O)N1CCC(N)(C(=O)O)CC1 [RIMINKEFON],EC50,[1],0.0014 nM
CC(C)C[C@@H](NC(=O)[C@@H](Cc1ccccc1)NC(=O)CNCCCc1ccccc1)C(=O)N[C@H](CCCCN)C(=O)N1CCOCC1,EC50,[1],0.045 nM
CC(C)C[C@@H](NC(=O)[C@@H](Cc1ccccc1)NC(=O)CNCC1(c2ccccc2)CC1)C(=O)N[C@H](CCCCN)C(=O)N1CCC(N)(C(=O)O)CC1,EC50,[1],0.057 nM
"CC(C)C[C@@H](NC(=O)[C@@H](Cc1ccccc1)NC(=O)CNCCc1ccccc1)C(=O)N[C@H](CCCCN)C(=O)N1CCC(N)(C(=O)O)CC1 (H-[Gly(NCH2CH2Ph)][dF][dL][dK]-{Piperidin1yl(4-NH2,4-COOH)})",EC50,[1],0.054 nM
CC(C)C[C@@H](NC(=O)[C@@H](Cc1ccccc1)NC(=O)[C@@H](C)NCCc1ccccc1)C(=O)N[C@H](CCCCN)C(=O)N1CCC(N)(C(=O)O)CC1,EC50,[1],> 1 nM

# From ChEMBL document CHEMBL4725465 (ACS Med Chem Lett, 2020)
